Test results taken from publication PMC9701179, “New tricyclic systems as photosensitizers towards triple negative breast cancer cells” (Archives of Pharmacal Research, 2022).
Where two headings read alike, the source gives them in different places.

Experiments:
MDA-MB-231 cells [1] = assay: Mitochondrial membrane potential (Mito-ID kit); type: cell-based, human; conditions: MDA-MB-231, UVA 2.0 J/cm^2; CCCP positive control
Description: The ΔΨ was assayed using the Mito-ID® Membrane Potential Kit according to the manufacturer’s instructions (Enzo Life Sciences, Farmingdale, NY, USA) as previously described. Briefly, MDA-MB-231 cells (8 × 10^3 per well) were seeded in 96-well plates; after 24 h, cells were washed with PBS and loaded with Mito-ID Detection Reagent for 30 min at 37 °C in the dark. Afterwards, cells were incubated with increasing concentrations of tested compounds for 90 min and after that exposed to UVA light (2.0 J/cm^2). CCCP (Carbonyl cyanide 3-chlorophenyl-hydrazone) was used as positive control. Fluorescence intensity was estimated using a VICTOR X3 (PerkinElmer, USA) plate reader at 490 (excitation) and 590 nm (emission).
Induction of ROS production can in turn prompt the collapse of mitochondrial membrane potential as well as loss of mitochondrial integrity and functioning. […] MDA-MB-231 TNBC cells were treated with tested compounds upon UVA irradiation and the percentage of cells with hypopolarized mitochondrial membrane potential was determined fluorometrically by means of the Mito-ID® Membrane Potential Kit.
Fig. 5 Effects on mitochondrial membrane potential (A) and cell death induction (B) in human breast MDA-MB-231 cancer cells. A Cells were treated with 7h and 8e and stained with TMRM (10 nM). Fluorescence was estimated at 490 nm (excitation) and 590 nm (emission). Data are the means of five independent experiments. Error bars indicate S.D. * P < 0.05. B Cells were treated with concentrations of 7h and 8e equal to IC50 for 24 h and stained with the fluorescent dyes Hoechst 33342 and PI

MDA-MB-231 cells [2] = assay: Intracellular ROS production (CM-H2DCFDA) under UVA; type: cell-based, human; conditions: MDA-MB-231, 25 µM, 90 min, UVA 2.0 J/cm^2; antimycin 3 µM positive control
Description: The production of ROS was measured in MDA-MB-231 cells (10^4 per well) grown for 24 h in a 96-well plate in RPMI medium without phenol red (Merk, Germany). Cells were then washed with PBS and loaded with 10 μM 5-(and-6)-chloromethyl-2′,7′-dichlorodihydrofluorescein diacetate acetyl ester (CM–H2DCFDA) (Molecular Probes-Invitrogen, Eugene, OR) for 45 min, in the dark. Afterwards, cells were washed with PBS and incubated with tested compounds (25 µM) for 90 min and after that exposed to UVA light (2.0 J/cm^2). Fluorescence increase was estimated utilizing the wavelengths of 485 nm (excitation) and 527 nm (emission) in a VICTOR X3 (PerkinElmer, USA) plate reader. Antimycin (3 μM, Merk), a potent inhibitor of Complex III in the electron transport chain, was used as positive control.
ROS production under light (UVA, 2.0 J/cm^2) was evaluated in MDA-MB-231 cell samples treated with increasing concentrations of tested compounds or antimycin, a potent inhibitor of Complex III of mitochondria electron chain, used as a positive control under the same experimental conditions (Fig. 4).
Fig. 4 Cellular ROS production (A) and total thiol redox state (B). A Effect of UVA activated tested compounds (25 µM) or antimycin (3 µM) on hydrogen peroxide formation in MDA-MB-231 cancer cells. B Sulfhydryl content in MDA-MB-231 cancer cells incubated for 24 h with UVA activated tested compounds. The sulfhydryl group amount was determined by the DTNB assay. Error bars indicate S.D

MDA-MB-231 cells [3] = assay: MTT cytotoxicity/photocytotoxicity test on human TNBC MDA-MB-231 cells; type: cell-based; conditions: for IC50: Homo sapiens
Description: The irradiation device used for the irradiation of cell cultures during the assays was a black box equipped with two Philips UVA lamps with an irradiance of 17 mW cm^−2 and a centered emission peak at 365 nm; UVA irradiance was measured using a Waldmann Variocontrol radiometer, equipped with a UVA sensor. The box was maintained at room temperature inside with a fan and the multiwell plates were placed onto a water-refrigerated metal block.
Human triple negative (TNBC) breast MDA-MB-231 carcinoma cells were obtained from American Type Culture Collection (ATCC, Rockville, MD, USA). Human embryonic kidney HEK293 cells were obtained from the European Collection of Cell Cultures (ECACC, Salisbury, UK). Cell lines were maintained in the logarithmic phase at 37 °C in a 5% CO2 atmosphere using the following culture media containing 10% foetal calf serum (Euroclone, Milan, Italy), antibiotics (50 units/mL penicillin and 50 μg/mL streptomycin) and 2 mM l-glutamine: (i) RPMI-1640 medium (Euroclone, Milan, Italy) for MDA-MB-231 4 cells; (ii) DMEM (Euroclone, Milan, Italy) for HEK293 cells.
Cells (5–8 × 10^3 cells/well, dependent upon the growth characteristics of the cell line) were seeded in 96-well microplates in growth medium (100 μL). After 24 h, the medium was removed and replaced with a fresh one containing the compound to be studied at the appropriate concentration. Triplicate cultures were established for each treatment. For photocytotoxicity studies, after 1 h of incubation the medium was replaced with PBS and cells were treated with 2.0 J cm^−2 of UVA light. After irradiation, PBS was replaced with complete proliferation media. For pre-irradiation studies, instead, compounds in PBS were irradiated with 2.0 J cm^−2 of UVA light and subsequently cells were treated with pre-irradiated solutions. Following 24 h, each well was treated with 10 μL of a 5 mg/mL MTT saline solution, and following 5 h of incubation, 100 μL of a sodium dodecyl sulfate (SDS) solution in HCl 0.01 M were added. After an overnight incubation, cell growth inhibition was detected by measuring the absorbance of each well at 570 nm using a Bio-Rad 680 microplate reader. Mean absorbance for each drug dose was expressed as a percentage of the control untreated well absorbance and plotted against drug concentration. IC50 values, the drug concentrations that reduce the mean absorbance at 570 nm to 50% of those in the untreated control wells, were calculated by the four-parameter logistic (4-PL) model. Evaluation was based on means from at least four independent experiments.
The new synthetized pyrrolo[1,2-h][1,7]naphthyridinones 7 and pyrido[2,3-c]pyrrolo[1,2-a]azepinones 8 were screened for their cytotoxicity (in the dark) and photocitotoxicity (upon UVA light irradiation at 2.0 J/cm^2) profile on human TNBC cells, MDA-MB-231. The cytotoxicity/photocytotoxicity parameters, expressed in terms of IC50 values obtained by MTT test after 24 h of drug-exposure, are listed in Table 2.

[4] = MDA-MB-231, in the dark, 1 h pre-treatment, recovered for total 24 h, read-out: Dark IC50 (µM) ± S.D
[5] = light or radiation study, MDA-MB-231, 1 h pre-treatment, UVA 2.0 J/cm^2, recovered for total 24 h, read-out: UVA (2.0 J/cm^2) IC50 (µM) ± S.D

Compound | Cells with depolarized mitochondria (mitochondrial membrane potential) (MDA-MB-231 cells [1]) | Cellular ROS production (hydrogen peroxide formation) (MDA-MB-231 cells [2]) | IC50 (MDA-MB-231 cells [3]; [4]) | IC50 (MDA-MB-231 cells [3]; [5]) | melting point | UVA (2.0 J/cm^2) IC50 (µM) ± S.D (MDA-MB-231 cells [3]; MDA-MB-231, 1 h pre-treatment, UVA 2.0 J/cm^2, recovered for total 24 h)
CCOC(=O)c1ccc2n1CCc1cc(S(=O)(=O)c3ccccc3)c(=O)n(C)c1-2 [Compound 7e, Ethyl 3-(benzenesulfonyl)-1-methyl-2-oxo-1,2,5,6-tetrahydropyrrolo[1,2-h][1,7]naphthyridine-8-carboxylate] | did not induce a substantial change in mitochondrial membrane potential | hardly effective in inducing any ROS basal level production increase | > 50 µM | > 50 µM | – | –
COc1nc2c(cc1S(=O)(=O)c1ccccc1)CCn1cccc1-2 [Compound 7g, 2-methoxy-3-(phenylsulfonyl)-5,6-dihydropyrrolo[1,2-h][1,7]naphthyridine] | – | – | > 50 µM | > 50 µM | 210 to 211 °C | –
CC(C)OC(=O)c1ccc2n1CCCc1cc(S(=O)(=O)c3ccccc3)c(=O)n(C)c1-2 [Compound 8d, Propan-2-yl 3-(benzenesulfonyl)-1-methyl-2-oxo-1,5,6,7-tetrahydro-2H-pyrido[2,3-c]pyrrolo[1,2-a]azepine-9-carboxylate] | did not induce a substantial change in mitochondrial membrane potential | hardly effective in inducing any ROS basal level production increase | > 50 µM | > 50 µM | – | –
CC(C)OC(=O)C1(Br)C=CC2=C3NC(=O)C(S(=O)(=O)c4ccccc4)C=C3CCCN21 (stereo not drawn) [Compound 8h, Propan-2-yl 3-(benzenesulfonyl)-9-bromo-2-oxo-1,5,6,7-tetrahydro-2H-pyrido[2,3-c]pyrrolo[1,2-a]azepine-9-carboxylate] | – | – | > 50 µM | > 50 µM | 167 to 168 °C | completely ineffective in inhibiting cancer cell proliferation upon irradiation
